Source: publication PMC12058161, “The plant matrix of Artemisia annua L. for the treatment of malaria: Pharmacodynamic and pharmacokinetic studies” (PLOS One, 2025)
Several values for one entry are separate records, joined by “and”; a condition that tells them apart may be missing. Equal values may be shown once.

Assays:
in vivo = settings: male, Sprague Dawley, rat, po, 352 mg/kg
Procedure: (§1) Blood samples were centrifuged at 3500 rpm for 5 min at 4°C. All plasma samples were then stored at -80°C until analysis.
(§2) All samples were stored in a refrigerator at -80°C and thawed at room temperature before processing. A 50 μL aliquot of plasma was added with 5 μL of the standard solution (or acetonitrile) and 100 μL of internal standard solution in turn, vortexed and mixed, then sonicated for 3 min, centrifuged at 14000 rpm for 10 min at low temperature. The supernatant was transferred to an autosampler vial and analyzed by UHPLC-ESI-MS/MS.
(§3) The mobile phase consisted of 0.1% formic acid solution (A) and acetonitrile (B).
(§4) The ESI ionization source was used and detected in MRM mode.
(§5) All data were presented as mean ± SD. Pharmacokinetic parameters including half-life (t1/2), maximum plasma time (Tmax) and concentration (Cmax), area under concentration-time curve (AUC0-t and AUC0-∞), clearance (CL), steady-state volume of distribution (Vz), and mean residence time (MRT) were analyzed by non-compartmental method using DAS Version 2.0 (Chinese Pharmacological Society, Beijing, China). […] The data were analyzed by Student’s t-test for two groups and one-way analysis of variance for multiple groups; p < 0.05 was considered statistically significant.

[1] = Stability of the five compounds in SD rat plasma (QC samples, UHPLC-ESI-MS/MS); assay type: in vitro ADME; settings: for 3 freeze-thaw cycles mean ± SD / 7 days at -80°C mean ± SD / Room temperature 24h mean ± SD: SD rat plasma QC sample; for stability, Accuracy (measured versus nominal concentration) / stability, mean ± SD (measured concentration): SD rat plasma, n=5
[2] = male, Sprague Dawley, rat, in vivo, po, 352 mg/kg
Procedure: as §1, §2, §3, §4, §5

Caco-2 cells = experiment: Cytotoxicity in Caco-2 cells, CCK-8 assay; assay type: cell-based, human; settings: for Cell survival rate%: mean; for cck-8 mean (survival fraction): mean of 6
Procedure: Caco-2 cells were cultured in 96-well plates for 48 h at a seeding density of 5.0 × 10^3 cells/well before the addition of drugs. […] The final concentration of DMSO was 0.05% (v/v). Experiments were initiated by replacing the culture medium in each well with 100 μL of sample solutions at 37°C in the CO2 incubator. After 48 h of incubation, the medium was removed and 10 μL of CCK-8 reagent in the serum-free medium was added to each well. The plates were then incubated at 37°C for another 2 h. At the end of the incubation period, the plates were quantified by reading the absorbance at 450 nm on a micro-plate multi-detection instrument, SpectraMax iD3 with SoftMax® Pro (Molecular Devices Corporation Sunnyvale, CA, USA). The percentage of cell viability was calculated based on the absorbance measured relative to the absorbance of cells exposed to the negative control.

[3] = nominal 20 ng/mL, 3 freeze-thaw cycles
[4] = nominal 20 ng/mL, 7 days at -80°C
[5] = nominal 1000 ng/mL, 3 freeze-thaw cycles
[6] = nominal 1000 ng/mL, 7 days at -80°C
[7] = nominal 5000 ng/mL, 3 freeze-thaw cycles
[8] = nominal 5000 ng/mL, 7 days at -80°C
[9] = nominal 20 ng/mL, Room temperature 24h
[10] = nominal 1000 ng/mL, Room temperature 24h
[11] = nominal 5000 ng/mL, Room temperature 24h
[12] = Caco-2, concentration 10 μmol/L
[13] = Caco-2, concentration 20 μmol/L
[14] = Caco-2, concentration 40 μmol/L
[15] = Caco-2, concentration 80 μmol/L

Compound: C[C@@H]1CC[C@H]2[C@@H](C)C(=O)O[C@@H]3O[C@@]4(C)CC[C@@H]1[C@]32O4 [DEART, Deoxyartemisinin]
- AUC(0-inf) (in vivo): 0.848 ± 0.111 µg·h/mL
- AUC(0-t) (in vivo): 0.75 ± 0.114 µg·h/mL
- Cmax (in vivo; Cmax): 0.143 ± 0.0373 µg/mL
- MRT last (in vivo; MRT(0-t)): 4.04 ± 0.427 h
- MRT inf (in vivo; MRT(0-∞)): 6.12 ± 1.34 h
- half-life (in vivo; t1/2): 3.94 ± 1.57 h
- Stability in plasma, measured concentration (mean ± SD) ([1]; 3 freeze-thaw cycles, QC concentration 20 ng/mL): 21.4 ± 1.03 ng/mL
- Stability in plasma, measured concentration (mean ± SD) ([1]; 3 freeze-thaw cycles, QC concentration 1000 ng/mL): 1069 ± 21.8 ng/mL
- Stability in plasma, measured concentration (mean ± SD) ([1]; 3 freeze-thaw cycles, QC concentration 5000 ng/mL): 4765 ± 110 ng/mL
- Stability in plasma, measured concentration (mean ± SD) ([1]; 7 days at -80°C, QC concentration 20 ng/mL): 21.1 ± 1.73 ng/mL
- Stability in plasma, measured concentration (mean ± SD) ([1]; 7 days at -80°C, QC concentration 1000 ng/mL): 1069 ± 21.6 ng/mL
- Stability in plasma, measured concentration (mean ± SD) ([1]; 7 days at -80°C, QC concentration 5000 ng/mL): 4705 ± 267 ng/mL
- Stability, measured concentration, mean ± SD ([1]; QC sample 20 ng/mL, 3 freeze-thaw cycles): 21.4 ± 1.03 ng/mL
- Stability, measured concentration, mean ± SD ([1]; QC sample 20 ng/mL, 7 days at -80°C): 21.1 ± 1.73 ng/mL
- Stability, measured concentration, mean ± SD ([1]; QC sample 20 ng/mL, Room temperature 24h): 21.6 ± 0.78 ng/mL
- Stability, measured concentration, mean ± SD ([1]; QC sample 1000 ng/mL, 3 freeze-thaw cycles): 1069 ± 21.8 ng/mL
- Stability, measured concentration, mean ± SD ([1]; QC sample 1000 ng/mL, 7 days at -80°C): 1069 ± 21.6 ng/mL
- Stability, measured concentration, mean ± SD ([1]; QC sample 1000 ng/mL, Room temperature 24h): 1093 ± 39.5 ng/mL
- Stability, measured concentration, mean ± SD ([1]; QC sample 5000 ng/mL, 3 freeze-thaw cycles): 4765 ± 110 ng/mL
- Stability, measured concentration, mean ± SD ([1]; QC sample 5000 ng/mL, 7 days at -80°C): 4705 ± 267 ng/mL
- Stability, measured concentration, mean ± SD ([1]; QC sample 5000 ng/mL, Room temperature 24h): 5205 ± 494 ng/mL
- Stability in plasma, measured concentration (mean ± SD) ([1]; Room temperature 24h, QC concentration 20 ng/mL): 21.6 ± 0.78 ng/mL
- Stability in plasma, measured concentration (mean ± SD) ([1]; Room temperature 24h, QC concentration 1000 ng/mL): 1093 ± 39.5 ng/mL
- Stability in plasma, measured concentration (mean ± SD) ([1]; Room temperature 24h, QC concentration 5000 ng/mL): 5205 ± 494 ng/mL
- 3 freeze-thaw cycles mean ± SD [1, 3]: 21.4 ± 1.03 ng/mL and 21.3622 ng/mL
- 7 days at -80°C mean ± SD [1, 4]: 21.1 ± 1.73 ng/mL and 21.1491 ng/mL
- Room temperature 24h mean ± SD ([1]; nominal 20 ng/mL): 21.6 ± 0.78 ng/mL and 21.6437 ng/mL
- 3 freeze-thaw cycles mean ± SD [1, 5]: 1069 ± 21.8 ng/mL and 1069.41 ng/mL
- 7 days at -80°C mean ± SD [1, 6]: 1069 ± 21.6 ng/mL and 1068.61 ng/mL
- Room temperature 24h mean ± SD ([1]; nominal 1000 ng/mL): 1093 ng/mL and 1093 ± 39.5 ng/mL
- 3 freeze-thaw cycles mean ± SD [1, 7]: 4765 ± 110 ng/mL and 4765.19 ng/mL
- 7 days at -80°C mean ± SD [1, 8]: 4705 ± 267 ng/mL and 4704.92 ng/mL
- Room temperature 24h mean ± SD ([1]; nominal 5000 ng/mL): 5205.17 ng/mL and 5205 ± 494 ng/mL
- stability, Accuracy (measured versus nominal concentration) [1, 3]: 106.81%
- stability, mean ± SD (measured concentration) [1, 3]: 21.4 ± 1.03 ng/mL
- stability, Accuracy (measured versus nominal concentration) [1, 4]: 105.75%
- stability, mean ± SD (measured concentration) [1, 4]: 21.1 ± 1.73 ng/mL
- stability, Accuracy (measured versus nominal concentration) [1, 9]: 108.22%
- stability, mean ± SD (measured concentration) [1, 9]: 21.6 ± 0.78 ng/mL
- stability, Accuracy (measured versus nominal concentration) [1, 5]: 106.94%
- stability, mean ± SD (measured concentration) [1, 5]: 1069 ± 21.8 ng/mL
- stability, Accuracy (measured versus nominal concentration) [1, 6]: 106.86%
- stability, mean ± SD (measured concentration) [1, 6]: 1069 ± 21.6 ng/mL
- stability, Accuracy (measured versus nominal concentration) [1, 10]: 109.30%
- stability, mean ± SD (measured concentration) [1, 10]: 1093 ± 39.5 ng/mL
- stability, Accuracy (measured versus nominal concentration) [1, 7]: 95.30%
- stability, mean ± SD (measured concentration) [1, 7]: 4765 ± 110 ng/mL
- stability, Accuracy (measured versus nominal concentration) [1, 8]: 94.10%
- stability, mean ± SD (measured concentration) [1, 8]: 4705 ± 267 ng/mL
- stability, Accuracy (measured versus nominal concentration) [1, 11]: 104.10%
- stability, mean ± SD (measured concentration) [1, 11]: 5205 ± 494 ng/mL
- CL [2]: 0.024 ± 0.003 L/h
- Vz [2]: 0.135 ± 0.049 L
- Cell survival rate%, single replicate (Caco-2 cells; Caco-2, 5μmol/L): 87.61% and 87.6% and 80.17% and 81.51% and 81.61% and 87.86%
- Cell survival rate%, single replicate (Caco-2 cells; Caco-2, 10μmol/L): 81.2% and 82.86% and 82.71% and 83.82% and 87.89% and 87.9%
- Cell survival rate%, single replicate (Caco-2 cells; Caco-2, 20μmol/L): 86.78% and 81.42% and 81.32% and 82.7% and 86.07% and 80.23%
- Cell survival rate%, single replicate (Caco-2 cells; Caco-2, 40μmol/L): 83.23% and 82.76% and 82.72% and 82.4% and 81.01% (2×)
- Cell survival rate%, single replicate (Caco-2 cells; Caco-2, 80μmol/L): 79.21% and 80.38% and 82.01% and 81.79% and 85.15% and 82.39%
- cck-8 cell survival as fraction, single replicate (Caco-2 cells; Caco-2, concentration 5 μmol/L): 0.8761 and 0.876 and 0.8017 and 0.8151 and 0.8161 and 0.8786
- Cell survival rate% (Caco-2 cells; Caco-2, concentration 5 μmol/L): 84.39%
- cck-8 mean (survival fraction) (Caco-2 cells; Caco-2, concentration 5 μmol/L): 0.84
- cck-8 cell survival as fraction, single replicate (Caco-2 cells; [12]): 0.812 and 0.8286 and 0.8271 and 0.8382 and 0.8789 and 0.879
- Cell survival rate% (Caco-2 cells; [12]): 84.40%
- cck-8 mean (survival fraction) (Caco-2 cells; [12]): 0.84
- cck-8 cell survival as fraction, single replicate (Caco-2 cells; [13]): 0.8678 and 0.8142 and 0.8132 and 0.827 and 0.8607 and 0.8023
- Cell survival rate% (Caco-2 cells; [13]): 83.09%
- cck-8 mean (survival fraction) (Caco-2 cells; [13]): 0.83
- cck-8 cell survival as fraction, single replicate (Caco-2 cells; [14]): 0.8323 and 0.8276 and 0.8272 and 0.824 and 0.8101
- Cell survival rate% (Caco-2 cells; [14]): 82.19%
- cck-8 mean (survival fraction) (Caco-2 cells; [14]): 0.82
- cck-8 cell survival as fraction, single replicate (Caco-2 cells; [15]): 0.7921 and 0.8038 and 0.8201 and 0.8179 and 0.8515 and 0.8239
- Cell survival rate% (Caco-2 cells; [15]): 81.82%
- cck-8 mean (survival fraction) (Caco-2 cells; [15]): 0.82
